Data: patent US12274703B2, “Compositions and methods of treatment for neurological disorders comprising a dementia” (Gliapharm SA, priority 2017, dated 2025)

Tests used:
[1] = tested on: astrocytes; experiment: Extracellular lactate quantification; type: cell-based, mouse; details: Mus musculus, Astrocyte; Appendix II; lactate secretion; read-out: EC50
Protocol: (§1) Primary cultures of cerebrocortical astrocytes were obtained from 1-2-day-old OF1 mouse pups (Charles River Laboratories). Briefly, cortices were isolated and minced in small pieces under a dissecting microscope. The cells were incubated for 30 min at 37° C. in a solution containing 20 U/ml of papain enzyme (Worthington Biochemical), L-cysteine 1 mM (Sigma), and 10 kU/ml DNase I (Worthington Biochemical) for an enzymatic dissociation. Papain activity was stopped by the addition of fetal calf serum (FCS) to the solution, and a single-cell suspension was then obtained by mechanical dissociation, which consisted in cells trituration in a DMEM (D7777, Sigma-Aldrich) medium (supplemented with 44 mm NaHCO3, and 10 ml/L antibiotic/antimycotic solution) containing 10% FCS. The cells were seeded at an average density of 6×10^4 cells/cm^2 in poly-D-lysine-coated 96, 12 or 6-well culture plates, depending on their use, and incubated at 37° C. in a humidified atmosphere containing 5% CO2/95% air. Culture medium was renewed twice per week. Cells were stimulated and harvested between DIV14 and DIV17, when confluence and cell growth were optimal.
Secretion of L-lactate was determined in the extracellular medium of 96-well plated astrocytes after 90 min stimulation (at 37° C., in 5% CO2/95% air conditions) with the drug of interest. The stimulation medium was composed of D5030 medium (completed with D-glucose 5 mM and 44 mM sodium bicarbonate) for 90 min in concentrations ranging from 0 to 100 μM.
Briefly, 200 μl of a Glycine (Sigma)-Semicarbazide (Acros) 0.2M pH 10 buffer containing 3 mM NAD (Roche) and LDH 14 U/ml (Roche) was added to each well of a 96-well plate containing 30 μl aliquots complemented with 20 μl fresh complete D5030 medium. Samples were incubated at 37° C. for 1 h. After samples cooled down at room temperature, the fluorescence intensity (340 nm excitation/450 nm emission) that represents the amount of NADH produced was measured, and lactate concentration values were determined from a standard curve of L-lactate.
Statistical analysis consisted in ANOVA followed by Fisher LSD post-hoc test for pair-wise comparisons.
Levels of lactate secreted by astrocytes were measured in the extracellular medium at 90 min after stimulation with hits (molecules) from the CDC54K library.

[2] = tested on: primary astrocytes; experiment: High throughput screening for lactate secretion: acidification of extracellular medium (SNARF5); type: cell-based, mouse; details: Mus musculus, Astrocyte, 1.5 h; Appendix I; primary screening, 10 uM, 90 min; relative to positive control; read-out: Score
Protocol: as §1
Secretion of lactate in a high-throughput screening (HTS) fashion was measured indirectly through the acidification of extracellular medium. To this end, primary astrocytes grown in 96-well plates for 17 days were stimulated with the compounds as listed herein.
After washing the cells twice with stimulation medium (DMEM (D5030, Sigma), 3 mM NaHCO3 and 5 mM Glucose) at 37° C., cells were stimulated with the compounds at a final concentration of 10 uM (1% DMSO final) in 50 ul per well of stimulation medium supplemented with 10 uM of the extracellular pH sensor SNARF-5F %-(AND-6)-CAR (Life Technologies Corporation). Each compound was tested in two different plates for duplicates.
After 90 min stimulation, fluorescence was read at exc. (excitation) 480 nm/emm. (emission) 580 nm and at exc 480 nm/emm. 630 nm. The ratio of fluorescence between 630 nm and 580 emission values, which represents extracellular pH, was calculated.
In each plate, 8 wells were used for negative controls (DMSO) and 8 wells were used for positive controls (CCCP 2 uM in DMSO). Z prime values were calculated for each of the plates tested and values <0 were discarded.
The average and SD of compounds' values tested in duplicates were calculated, and compound was noted as HIT when the difference between compound's average and negative control's average was greater than three times the sum of compound's SD and negative controls' SD. Only scores greater than 40% were considered as lead hits for the CDC54K library; for the remaining libraries, all hits were considered. Scores are calculated as the % of activity compared to the positive control in each plate (which is 100%).
Primary screening hits were cherry picked on new plates and confirmed for SNARF5 effect, after having discarded those compounds that are fluorescent (exc. 480 nm/emm. 580 nm or 630 nm) before stimulation. Extracellular medium was next analyzed for extracellular lactate quantification for secondary screening.
Identification of lactate-enhancing drugs with high throughput screening (HTS) experiments on astrocytes primary cultures using extracellular pH dye (SNARF5F 5-(and 6)-carboxylic acid) for 90 min. The procedure is described in Material and Methods (2. Cell culture, 2.1. HTS for lactate secretion and 2.2. Extracellular lactate quantification).
The procedure was performed as follows: • Primary screening: acidification of the extracellular medium • Primary screening confirmation: acidification of the extracellular medium, removal of compounds with fluorescent activity at exc. 480 nm/emm. 580 nm or 630 nm. • Secondary screening: dosage of extracellular lactate

| SMILES | EC50 [1] [µM] | Emax at 10 µM [2] [%] |
| --- | --- | --- |
| CC(=O)N1CC(C)(C)c2cc(S(=O)(=O)NCc3ccc(C)cc3)ccc21 [L302-0069] | 6.27 | – |
| CC(=O)N1CC(C)(C)c2cc(S(=O)(=O)Nc3ccc(F)cc3C)ccc21 [L302-0181] | 5.05 | – |
| Cn1c(=O)c(N2CCC(NC(=O)Nc3cccc(Cl)c3)CC2)nc2ccccc21 [L932-0267] | 4.64 | – |
| CN(C)c1ccc2ncnc(N3CCN(C(=O)c4ccc(Cl)cc4)CC3)c2c1 [M381-0730] | 3.19 | – |
| CCc1ccc(NC(=O)Cc2cn(C)c3ncccc23)cc1 [M508-0370] | 4.58 | – |
| CCc1ccc(NS(=O)(=O)c2c(C)c(-c3nnc(C4CC4)o3)n(C)c2C)cc1 [M950-1515] | 4.06 | – |
| CCCCN1C(=O)C(C)(C(=O)Nc2ccc(OCC)cc2)Oc2cccnc21 (stereo not drawn) [P621-1364] | 5.86 | – |
| CCOc1ccc(C2(O)C(C)[N+]3=C(CCC3)N2c2ccc(OC)cc2)cc1 (stereo not drawn) [T0500-6629] | 2.61 | – |
| Cc1nc2ccccc2n1CCOc1ccc(Br)cc1 [T0505-4087] | 7.07 | – |
| c1ccc(-c2c[nH]c3ncnc(NCCN4CCOCC4)c23)cc1 [T0513-0213] | 3.99 | – |
| CC1(C)Cc2cccc(OCC(O)CN3CCc4ccccc4C3)c2O1 (stereo not drawn) [T0515-1783] | 5.39 | – |
| N#Cc1cc(C(=O)c2cc(F)ccc2O)cn(-c2ccc(F)c(Cl)c2)c1=O [T0516-6894] | 8.21 | – |
| Cc1sc2nc(CSc3nc4ccccc4c(=O)n3C)[nH]c(=O)c2c1C [T0517-2783] | 3.84 | – |
| COc1ccc(NS(=O)(=O)c2cccc(NC(=O)c3cccs3)c2)cc1 [T0517-4117] | 5.43 | – |
| CCN(CC)C(=O)c1nc(CNC(=O)c2ccc3ccccc3n2)oc1C [T993-1787] | 7.99 | – |
| O=c1[nH]nc(OCCOc2ccc(Br)cc2)n1C1CC1 [T533260] | 6.84 | – |
| COc1ccc(NS(=O)(=O)c2cccc(NC(=O)c3ccccc3)c2)cc1 [T5274959] | 4.12 | – |
| O=S(=O)(Nc1ccc(S(=O)(=O)C(F)F)cc1)c1ccc(Cl)cc1 [T5311200] | 6.02 | – |
| CCOc1ccc(CN(C)CC(=O)Nc2cccc(C)c2)cc1OC [T5318833] | 5.45 | – |
| COc1ccc(NS(=O)(=O)c2ccc(NC(=O)C3CCCO3)cc2)cc1 (stereo not drawn) [T5329723] | 4.61 | – |
| CN1c2ccccc2C(=O)NC1c1ccc(Cl)c(Cl)c1 (stereo not drawn) [T5389517] | 5.74 | – |

| SMILES | EC50 [1] [µM] | Emax at 10 µM [2] [%] |
| --- | --- | --- |
| CN(C)S(=O)(=O)c1cccc(C(=O)Nc2ccc(Oc3ccccc3)cc2)c1 [T5393500] | 3.43 | – |
| CCC(C)NS(=O)(=O)c1ccc(Oc2ccc(C)cc2)cc1 (stereo not drawn) [T5400234] | 4.64 | – |
| Cc1ccc(OCCn2c(C)nc3ccccc32)cc1 [T5444083] | 4.59 | – |
| O=C(Nc1ccc(F)c(F)c1)c1ccc(Cl)c(S(=O)(=O)N2CCCC2)c1 [T5450239] | 4.42 | – |
| CCN(CC)S(=O)(=O)c1ccc(S(=O)(=O)Nc2ccc(C)cc2Cl)cc1 [T5453923] | 5.36 | – |
| CCN1C(=O)c2cccc3c(S(=O)(=O)Nc4ccc(OC)cc4OC)ccc1c23 [T5477696] | 5.1 | – |
| Cc1c(O)ccc2c(CN(C)CC3COc4ccccc4O3)cc(=O)oc12 (stereo not drawn) [T5494352] | 5.02 | – |
| CCn1c(=O)c(C)nc2cc(C(=O)N(Cc3ccc(F)cc3)C3CC3)ccc21 [T5586091] | 5.36 | – |
| Cc1nc2ccc(NC(=O)c3ccc4c(c3)CC(C)N4S(C)(=O)=O)cc2s1 (stereo not drawn) [T5606387] | 4.61 | – |
| CC(Nc1ncnc2sccc12)c1ccccn1 (stereo not drawn) [T5672380] | 3.91 | 76.5 |
| N#Cc1ccc(S(=O)(=O)Nc2ccccc2C(=O)NCc2ccccc2)cc1 [T5673322] | 7.42 | – |
| CCCC(=O)Nc1nc(-c2ccc3c(c2)CCO3)cs1 [T5691896] | 5.21 | – |
| Cc1ccc(-c2csc(NC(=O)c3ccncc3)n2)cc1[N+](=O)O [T5694329] | 1.59 | – |
| CC(=O)c1c(C)[nH]c(C(=O)N(C)Cc2ccc(C)cc2C)c1C [T5705522] | 2.53 | – |
| CC(=O)N1CCc2cc(S(=O)(=O)NCC(C)c3ccccc3)ccc21 (stereo not drawn) [T5707230] | 4.88 | – |
| COc1ccc(C(C)NC(=O)c2cc(=O)c3ccccc3o2)cc1F (stereo not drawn) [T5710343] | 6.31 | – |
| CCc1ccccc1NC(=O)CN(C)c1ncnc2c1oc1ccccc12 [T5712071] | 1.14 | – |
| Cc1sc2nc(CSc3nc4ccccc4[nH]3)nc(N)c2c1C [T5719257] | 2.85 | – |
| Cc1ccc(S(=O)(=O)Nc2ccc(F)c(F)c2F)cc1[N+](=O)[O-] [T5729557] | 5.69 | – |
| CCc1ccc(S(=O)(=O)Nc2c(C)nn(C)c2C)cc1 [T5753165] | 6.41 | – |
| COc1ccccc1NC(=O)CO/N=C(/N)c1cccc(C(F)(F)F)c1 [T5770640] | 4.86 | – |

| SMILES | EC50 [1] [µM] | Emax at 10 µM [2] [%] |
| --- | --- | --- |
| COc1cc(C)c(NC(=O)Cc2ccc(Cl)c(Cl)c2)cc1OC [T5783794] | 6.11 | – |
| c1nc(NCc2ccc3c(c2)OCO3)c2sccc2n1 [T5787526] | 3.89 | – |
| CC(=O)Nc1cccc(NC(=O)CSc2nc(C)c(C)n2C2CCCC2)c1 [T5788339] | 3.9 | – |
| CCCCn1c(CN(C)Cc2ccccc2)nc2c1c(=O)n(C)c(=O)n2C [T5788545] | 3.59 | – |
| c1ccc(CN2CCOCC2)c(CNc2ncnc3ccsc23)c1 [T5790476] | 3.98 | – |
| CC(=O)c1c(C)[nH]c(C(=O)C(C)N(C)Cc2ccc3c(c2)OCO3)c1C (stereo not drawn) [T5798761] | 4.01 | – |
| COc1cccc(C(CNc2nc(C(F)(F)F)nc3ccccc23)N(C)C)c1 (stereo not drawn) [T5800607] | 5.87 | – |
| Cn1nc(C(=O)Nc2ccc(Oc3ccccc3Cl)cc2)ccc1=O [T5813085] | 4.1 | – |
| c1ccc(Cc2ccc(OCCn3ccnc3)cc2)cc1 [T5821723] | 4.29 | – |
| CC(C)(C)NS(=O)(=O)c1cccc(C(=O)Nc2ccncc2)c1 [T5827594] | 5.02 | – |
| COc1ccc(-c2csc(N3C(=O)CC4CS(=O)(=O)CC43)n2)cc1 (stereo not drawn) [T5832764] | 4.02 | – |
| O=C(CN1CCCC1c1ccc2c(c1)OCCCO2)Nc1cc(F)cc(F)c1 (stereo not drawn) [T5993799] | 8.81 | – |
| Cc1cccc(NC(=O)c2ccc(S(=O)(=O)Nc3ccccc3)cc2)n1 [T6125251] | 4.56 | – |
| O=S(=O)(Nc1ccc(Cl)cc1)c1ccc(F)c(Cl)c1 [T6947848] | 5.5 | – |
| O=C(Nc1ccc(S(=O)(=O)NCC2CCCO2)cc1)c1ccccc1 (stereo not drawn) [Y031-0361] | 8.23 | – |
| C1CCCC(NC2=NCCCNC23CCCCC3)CC1 [Z076-0028] | 8.01 | – |
| Cc1nc2ncnn2c(NC2CCCCCC2)c1C [Z606-8287] | 4.29 | – |
| Cc1nc2ncnn2c(NCc2ccco2)c1C [Z606-8298] | 4.89 | – |
| CCc1c(C)nc2ncnn2c1NC1CCCCCC1 [Z606-8351] | 5 | – |
| CCc1c(C)nc2ncnn2c1NC1CCCCC1 [Z606-8352] | 4.11 | – |
